Results reported in PMC9189845, “Structure–Activity Relationships of 8-Hydroxyquinoline-Derived Mannich Bases with Tertiary Amines Targeting Multidrug-Resistant Cancer” (Journal of Medicinal Chemistry, 2022).
Like-named read-outs stand apart in the source and are kept apart here.

Columns and labels:
[1] = UV-visible spectrophotometric titrations (pKa); type: physicochemical; details: 25 °C; for pKa: water with 0.2% (v/v) DMSO
Experimental: Spectrophotometrical determination of pKa values was performed as previously reported.[20],[50] An Agilent Cary 8454 diode array spectrophotometer was used to record the UV–visible spectra in the interval 200–800 nm. The path length was between 1 and 5 cm. The spectrophotometric titrations were performed in water with 0.2% (v/v) DMSO on samples containing the compounds at 2–50 μM in the pH range from 2 to 11.5 at 25.0 ± 0.1 °C at an ionic strength of 0.10 M (KCl). Proton dissociation constants and the individual spectra of the species in the different protonation states were calculated with the computer program PSEQUAD.[62]

MES-SA cells = assay: PrestoBlue viability assay, MES-SA cells; details: Homo sapiens, MES-SA
MES-SA/Dx5 cells = assay: PrestoBlue viability assay, MES-SA/Dx5 cells (MDR, P-gp positive); details: for IC50: Homo sapiens; for SR: selectivity ratio MES-SA vs MES-SA/Dx5, without TQ; for SR_TQ: selectivity ratio MES-SA vs MES-SA/Dx5, with TQ
A431 cells = assay: PrestoBlue viability assay, A431 cells; details: Homo sapiens
A431-B1 cells = assay: PrestoBlue viability assay, A431-B1 (A431-ABCB1) cells
[2] = 0.2% DMSO, I = 0.10 M KCl, read-out: pKa (OH), experimentally determined
[3] = piperidinium / pyrrolidinium / morpholinium N, read-out: pKa (other; N+amH alkylamine nitrogen), experimentally determined
[4] = quinolinium nitrogen, I = 0.10 M KCl, read-out: pKa (NquinH+), experimentally determined
[5] = 72 h, read-out: IC50 / μM MES-SA, absence of TQ, 72 h incubation
[6] = read-out: pIC50 value MES-SA, MES-SA cells, without TQ (converted)
[7] = MES-SA/Dx5, 72 h, read-out: IC50 / μM MES-SA/Dx5, absence of TQ, 72 h incubation
[8] = MES-SA/Dx5, read-out: pIC50 value MES-SA/Dx5, MES-SA/Dx5 cells, without TQ (converted)
[9] = A-431, 72 h, read-out: IC50 / µM A431, 72 h incubation
[10] = A-431, read-out: pIC50 A431, SARM figure (converted)
[11] = 72 h, read-out: IC50 / µM A431-B1, 72 h incubation
[12] = read-out: pIC50 A431-B1, SARM figure (converted)
[13] = read-out: IC50 / μM MES-SA (values in parentheses), presence of 1 μM P-gp inhibitor tariquidar (TQ)
[14] = read-out: pIC50 MES-SA, absence of TQ (converted), SARM figure
[15] = read-out: pIC50 MES-SA_TQ, presence of 1 μM TQ (converted), SARM figure
[16] = read-out: pIC50 value MES-SA+TQ, MES-SA cells, with TQ (converted)
[17] = MES-SA/Dx5, read-out: IC50 / μM MES-SA/Dx5 (values in parentheses), presence of 1 μM P-gp inhibitor tariquidar (TQ)
[18] = MES-SA/Dx5, read-out: pIC50 value MES-SA/Dx5 + TQ, MES-SA/Dx5 cells, with TQ (converted)

## Oc1c(CN2CCCc3ccccc32)ccc2cccnc12 [Compound 79]
[1]; piperidinium / pyrrolidinium / morpholinium N, water
  pKa (other; N+amH alkylamine nitrogen), experimentally determined: 1.69
[1]; [2]
  pKa: 9.98 ± 0.03
[1]; [3]
  pKa: 1.7 ± 0.1
[1]; [4]
  pKa: 4.45 ± 0.03
MES-SA cells; [5]
  IC50: 10.1 ± 0.38 µM
MES-SA cells; [6]
  IC50: 10 µM
MES-SA/Dx5 cells; [7]
  IC50: 13.5 ± 0.7 µM
MES-SA/Dx5 cells; [8]
  IC50: 13.5 µM
MES-SA/Dx5 cells
  SR: 0.75

## COCc1ccc(O)c2ncccc12 [Compound 14]
[1]; [2]
  pKa: 9.43 ± 0.03
[1]; [4]
  pKa: 4.64 ± 0.03
MES-SA cells; [5]
  IC50: 2.51 ± 0.13 µM
MES-SA cells; [6]
  IC50: 2.51 µM
MES-SA/Dx5 cells; [7]
  IC50: 1.79 ± 0.09 µM
MES-SA/Dx5 cells; [8]
  IC50: 1.78 µM
MES-SA/Dx5 cells
  SR: 1.4

## Oc1ccc(CN2CCN(c3ccccc3)CC2)c2cccnc12 [Compound 57]
[1]; [2]
  pKa: 8.88 ± 0.03
[1]; read-out: pKa (NpiperaziniumH+ closer to quinoline ring), experimentally determined
  pKa: 6.69 ± 0.03
[1]; [4]
  pKa: 3.63 ± 0.03
MES-SA cells; [5]
  IC50: 3.67 ± 0.35 µM
MES-SA cells; [6]
  IC50: 3.63 µM
MES-SA/Dx5 cells; [7]
  IC50: 4.19 ± 0.15 µM
MES-SA/Dx5 cells; [8]
  IC50: 4.17 µM
MES-SA/Dx5 cells
  SR: 0.88

## Oc1ccc(CN2CCCCC2)c2cccnc12 [Compound 47]
[1]; [2]
  pKa: 8.45 ± 0.03
[1]; [3]
  pKa: 10.23 ± 0.03
[1]; [4]
  pKa: 3.83 ± 0.03
MES-SA cells; [5]
  IC50: 7.45 ± 0.06 µM
MES-SA cells; [6]
  IC50: 7.41 µM
MES-SA/Dx5 cells; [7]
  IC50: 4.36 ± 0.4 µM
MES-SA/Dx5 cells; [8]
  IC50: 4.37 µM
MES-SA/Dx5 cells
  SR: 1.71

## CC(C)OCc1cc(CN2CCOCC2)c(O)c2ncccc12 [Compound 33]
A431 cells; [9]
  IC50: 13.2 ± 6.23 µM
A431 cells; [10]
  IC50: 12 µM
MES-SA cells; [5]
  IC50: 3.12 ± 0.6 µM
MES-SA cells; [6]
  IC50: 3.09 µM
A431-B1 cells; [11]
  IC50: 4.76 ± 0.23 µM
A431-B1 cells; [12]
  IC50: 4.79 µM
MES-SA/Dx5 cells; [7]
  IC50: 1.74 ± 0.29 µM
MES-SA/Dx5 cells; [8]
  IC50: 1.7 µM
MES-SA/Dx5 cells
  SR: 1.79

## CCCOCc1cc(CN2CCN(c3ccccc3)CC2)c(O)c2ncccc12 [Compound 41]
A431 cells; [9]
  IC50: 5.69 ± 0.76 µM
A431 cells; [10]
  IC50: 5.62 µM
MES-SA cells; [5]
  IC50: 1.45 ± 0.13 µM
MES-SA cells; [13]
  IC50: 1.45 ± 0.07 µM
MES-SA cells; [14]
  IC50: 1.45 µM
MES-SA cells; [15]
  IC50: 1.45 µM
MES-SA cells; [16]
  IC50: 1.45 µM
MES-SA cells; [6]
  IC50: 1.45 µM
A431-B1 cells; [11]
  IC50: 2.41 ± 0.37 µM
A431-B1 cells; [12]
  IC50: 2.4 µM
MES-SA/Dx5 cells; [7]
  IC50: 0.24 ± 0.03 µM
MES-SA/Dx5 cells; [17]
  IC50: 0.83 ± 0.01 µM
MES-SA/Dx5 cells; MES-SA/Dx5, read-out: pIC50 Dx5_TQ, presence of 1 μM TQ (converted), SARM figure
  IC50: 0.955 µM
MES-SA/Dx5 cells; [18]
  IC50: 0.832 µM
MES-SA/Dx5 cells; [8]
  IC50: 0.24 µM
MES-SA/Dx5 cells
  SR_TQ: 1.74
  SR: 6.01

## Oc1c(C(c2ccccn2)N2CCCCC2)cc(Cl)c2cccnc12 (stereo not shown) [Compound 98]
A431 cells; [10]
  IC50: 50.1 µM
MES-SA cells; [5]
  IC50: 31.9 ± 1.55 µM
MES-SA cells; [16]
  IC50: 33.1 µM
MES-SA cells; [6]
  IC50: 31.6 µM
A431-B1 cells; [12]
  IC50: 24 µM
MES-SA/Dx5 cells; [7]
  IC50: 16.6 ± 0.88 µM
MES-SA/Dx5 cells; [18]
  IC50: 13.5 µM
MES-SA/Dx5 cells; [8]
  IC50: 16.6 µM
MES-SA/Dx5 cells
  SR_TQ: 2.45
  SR: 1.92

## O=[N+]([O-])c1cc(CN(CCO)CCO)c(O)c2ncccc12 [Compound 7]
A431 cells; [9]
  IC50: 9.79 ± 1.13 µM
MES-SA cells; [5]
  IC50: 6.46 ± 0.49 µM
MES-SA cells; [6]
  IC50: 6.46 µM
A431-B1 cells; [11]
  IC50: 9.18 ± 0.58 µM
A431-B1 cells; fraction of IC50 in P-gp negative vs positive cells
  SR (A431 / A431-B1): 1.07
MES-SA/Dx5 cells; [7]
  IC50: 4.33 ± 0.2 µM
MES-SA/Dx5 cells; [8]
  IC50: 4.37 µM
MES-SA/Dx5 cells
  SR: 1.49

## CCOCc1cc(CN2CCN(C)CC2)c(O)c2ncccc12 [Compound 36]
A431 cells; [9]
  IC50: 66.6 ± 20.8 µM
A431 cells; [10]
  IC50: 63.1 µM
MES-SA cells; [5]
  IC50: 23 ± 1.46 µM
MES-SA cells; [13]
  IC50: 22.9 ± 1.08 µM
MES-SA cells; [14]
  IC50: 22.9 µM
MES-SA cells; [15]
  IC50: 22.9 µM
MES-SA cells; [16]
  IC50: 22.9 µM
MES-SA cells; [6]
  IC50: 22.9 µM
A431-B1 cells; [11]
  IC50: 24.1 ± 10.1 µM
A431-B1 cells; [12]
  IC50: 22.4 µM
MES-SA/Dx5 cells; [7]
  IC50: 7.43 ± 0.46 µM
MES-SA/Dx5 cells; [17]
  IC50: 17.1 ± 2.19 µM
MES-SA/Dx5 cells; [18]
  IC50: 17 µM
MES-SA/Dx5 cells; [8]
  IC50: 7.41 µM
MES-SA/Dx5 cells
  SR_TQ: 1.34
  SR: 3.09

## CCOCc1cc(CN2CCN(c3ccccc3)CC2)c(O)c2ncccc12 [Compound 40]
A431 cells; [9]
  IC50: 6.24 ± 1.95 µM
A431 cells; [10]
  IC50: 5.89 µM
MES-SA cells; [5]
  IC50: 1.27 ± 0.15 µM
MES-SA cells; [13]
  IC50: 1.62 ± 0.005 µM
MES-SA cells; [16]
  IC50: 1.62 µM
MES-SA cells; [6]
  IC50: 1.26 µM
A431-B1 cells; [11]
  IC50: 1.94 ± 0.19 µM
A431-B1 cells; [12]
  IC50: 1.91 µM
MES-SA/Dx5 cells; [7]
  IC50: 0.34 ± 0.04 µM
MES-SA/Dx5 cells; [17]
  IC50: 1.05 ± 0.1 µM
MES-SA/Dx5 cells; [18]
  IC50: 1.05 µM
MES-SA/Dx5 cells; [8]
  IC50: 0.339 µM
MES-SA/Dx5 cells
  SR_TQ: 1.54
  SR: 3.72
